From patent US6838439B2, “Heterocytes as inhibitors of leucocyte adhesion and as VLA-4 antagonists” (Aventis Pharma Deutschland GmbH, priority 1996, dated 2005)

The compounds below were run against T1, interaction between VCAM-1 and VLA-4 (VLA-4 on human U937 cells / hVCAM-1(1-3)-IgG) (Homo sapiens, UniProt P05556+P13612) (assay: U937/VCAM-1 cell adhesion test: adhesion of U937 cells to hVCAM-1(1-3)-IgG). Conditions: inhibition of adhesion of U937 cells (ATCC CRL 1593) to hVCAM-1(1-3)-IgG.
T1 construct: offered in their natural form as surface molecules on human U937 cells; host or cells: U937 cells carry the endogenous VLA-4; The partner hVCAM-1(1-3)-IgG was made in house in transfected COS cells (ATCC CRL1651) and used as culture supernatant
T1 sequence (P13612 34-1032): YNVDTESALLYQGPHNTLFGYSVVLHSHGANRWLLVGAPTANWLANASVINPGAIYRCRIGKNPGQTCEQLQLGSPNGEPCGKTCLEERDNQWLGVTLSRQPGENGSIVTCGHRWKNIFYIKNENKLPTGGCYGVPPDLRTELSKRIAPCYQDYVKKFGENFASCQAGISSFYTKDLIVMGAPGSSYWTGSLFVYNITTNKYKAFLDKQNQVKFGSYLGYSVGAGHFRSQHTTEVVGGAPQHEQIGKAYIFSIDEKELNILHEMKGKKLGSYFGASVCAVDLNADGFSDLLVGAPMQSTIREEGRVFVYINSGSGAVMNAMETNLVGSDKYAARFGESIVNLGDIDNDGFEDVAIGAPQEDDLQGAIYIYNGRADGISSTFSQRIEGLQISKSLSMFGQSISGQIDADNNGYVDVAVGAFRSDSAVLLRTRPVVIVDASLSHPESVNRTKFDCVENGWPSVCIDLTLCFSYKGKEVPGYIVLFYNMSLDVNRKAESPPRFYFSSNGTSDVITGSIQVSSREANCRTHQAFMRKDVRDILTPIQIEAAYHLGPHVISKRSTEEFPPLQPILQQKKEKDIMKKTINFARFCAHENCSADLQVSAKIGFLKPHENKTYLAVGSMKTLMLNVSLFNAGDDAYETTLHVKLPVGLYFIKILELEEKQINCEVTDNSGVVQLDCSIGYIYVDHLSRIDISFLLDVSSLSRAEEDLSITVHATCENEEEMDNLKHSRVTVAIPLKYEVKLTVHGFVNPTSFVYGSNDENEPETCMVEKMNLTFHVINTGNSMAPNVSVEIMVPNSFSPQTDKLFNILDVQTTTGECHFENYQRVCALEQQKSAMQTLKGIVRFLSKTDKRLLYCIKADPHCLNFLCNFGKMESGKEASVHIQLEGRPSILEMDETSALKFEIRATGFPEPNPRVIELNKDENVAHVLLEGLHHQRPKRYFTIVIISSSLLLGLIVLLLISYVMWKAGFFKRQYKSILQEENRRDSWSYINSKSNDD
T1 sequence (P05556 21-798): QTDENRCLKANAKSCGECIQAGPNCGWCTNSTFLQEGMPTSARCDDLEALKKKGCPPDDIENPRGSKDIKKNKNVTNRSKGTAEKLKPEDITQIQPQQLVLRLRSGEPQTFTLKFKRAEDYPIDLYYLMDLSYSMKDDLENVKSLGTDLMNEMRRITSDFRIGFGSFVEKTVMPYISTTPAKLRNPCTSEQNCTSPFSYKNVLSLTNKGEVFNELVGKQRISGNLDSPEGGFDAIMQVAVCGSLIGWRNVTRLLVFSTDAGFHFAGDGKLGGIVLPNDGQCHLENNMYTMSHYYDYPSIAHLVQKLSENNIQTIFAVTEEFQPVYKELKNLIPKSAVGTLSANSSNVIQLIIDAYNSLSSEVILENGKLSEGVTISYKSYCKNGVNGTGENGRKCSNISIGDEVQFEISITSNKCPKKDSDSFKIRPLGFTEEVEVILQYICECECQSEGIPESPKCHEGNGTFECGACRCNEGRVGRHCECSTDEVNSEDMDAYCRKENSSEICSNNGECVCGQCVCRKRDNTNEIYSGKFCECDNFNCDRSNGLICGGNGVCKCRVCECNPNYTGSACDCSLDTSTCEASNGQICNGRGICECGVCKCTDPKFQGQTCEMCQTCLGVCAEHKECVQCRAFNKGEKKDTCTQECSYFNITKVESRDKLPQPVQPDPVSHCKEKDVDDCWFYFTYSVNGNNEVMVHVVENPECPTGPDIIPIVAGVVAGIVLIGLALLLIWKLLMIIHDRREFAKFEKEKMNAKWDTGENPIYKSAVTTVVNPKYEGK
Assay type: cell-based
Text: As a test method for the activity of the compounds of the formula Ib on the interaction between VCAM-1 and VLA-4, an assay is used which is specific for this interaction. The cellular binding components, i.e. the VLA-4-integrins, are offered in their natural form as surface molecules on human U937 cells (ATCC CRL 1593), which belong to the group of leucocytes. As specific binding components, recombinant soluble fusion proteins prepared by genetic engineering and consisting of the extracytoplasmic domains of human VCAM-1 and the constant region of a human immunoglobulin of the subclass IgG1 are used.
Assay for the measurement of the adhesion of U937 cells (ATCC CRL 1593) to hVCAM-1(1-3)-IgG
1. Preparation of human VCAM-1(1-3)-IgG and human CD4-IgG
A genetic construct for the expression of the extracellular domains of human VCAM-1 was employed, associated with the genetic sequence of the heavy chain of human immunoglobulin IgG-1 (hinge, CH2 and CH3 regions), from Dr. Brian Seed, Massachusetts General Hospital, Boston, USA. The soluble fusion protein hVCAM-1(1-3)-IgG contained the three amino-terminal extracellular immunoglobulin-like domains of human VCAM-1 (Damle and Aruffo, Proc. Natl. Acad. Sci. USA 1991, 88, 6403). CD4-IgG (Zettlmeissl et al., DNA and Cell Biology 1990, 9, 347) served as a fusion protein for negative controls. The recombinant proteins were expressed as soluble proteins after DEAE/dextran-mediated DNA-transfection in COS cells (ATCC CRL1651) according to standard procedures (Ausubel et al., Current protocols in molecular biology, John Wiley & Sons, Inc., 1994).
2. Assay for measurement of the adhesion of U937 cells to hVCAM-1(1-3)-IgG
2.1 96-well microtiter test plates (Nunc Maxisorb) were incubated at room temperature for 1 hour with 100 μl/well of a goat-anti-human IgG antibody solution (10 μg/ml in 50 mM Tris, pH 9.5). After removing the antibody solution, washing was carried out once with PBS.
2.2 150 μl/well of a blocking buffer (1% BSA in PBS) was incubated on the plates at room temperature for 0.5 hours. After removing the blocking buffer, washing was carried out once with PBS.
2.3 100 μl per well of a cell culture supernatant of transfected COS cells were incubated on the plates at room temperature for 1.5 hours. The COS cells were transfected with a plasmid which codes for the three N-terminal immunoglobulin-like domains of VCAM-1, coupled to the Fc part of human IgG1 (hVCAM-1(1-3)-IgG). The content of hVCAM-1(1-3)-IgG was about 0.5-1 μg/ml. After removing the culture supernatant, washing was carried out once with PBS.
2.4 The plates were incubated at room temperature for 20 minutes with 100 μl/well of Fc receptor blocking buffer (1 mg/ml of γ-globulin, 100 mM NaCl, 100 μM MgCl2, 100 μM MnCl2, 100 μM CaCl2, 1 mg/ml BSA in 50 mM HEPES, pH 7.5). After removing the Fc receptor blocking buffer, washing was carried out once with PBS.
2.5 20 μl of binding buffer (100 μM NaCl, 100 μM MgCl2, 100 μM MnCl2, 100 μM CaCl2, 1 mg/ml BSA in 50 mM HEPES, pH 7.5), were initially introduced, the substances to be tested were added in 10 μl of binding buffer and the mixture was incubated for 20 minutes. As controls, antibodies against VCAM-1 (BBT, No. BBA6) and against VLA-4 (Immunotech, No. 0764) were used.
2.6 U937 cells were incubated in Fc receptor blocking buffer for 20 minutes and then pipetted in at a concentration of 1×10^6/ml and in an amount of 100 μl per well ([…]).
2.7 The plates were slowly immersed at an angle of 45° in stop buffer (100 mM NaCl, 100 μM MgCl2, 100 μM MnCl2, 100 μM CaCl2 in 25 mM Tris, pH 7.5) and shaken off. The process was repeated.
2.8 50 μl/well of a dye solution (16.7 μg/ml of Hoechst dye 33258, 4% formaldehyde, 0.5% Triton X-100 in PBS) were then incubated on the plates for 15 minutes.
2.9 The plates were shaken off and slowly immersed at an angle of 45° in stop buffer (100 mM NaCl, 100 μM MgCl2, 100 μM MnCl2, 100 μM CaCl2 in 25 mM tris, pH 7.5). The process was repeated. […]
For `CC1(c2ccc(CNC(=O)Nc3ccccc3)cc2)C(=O)N(CC(=O)N[C@@H](CC(=O)O)C(=O)N[C@H](C(=O)O)c2ccccc2)C(=O)N1Cc1ccccc1` (mixture of isomers) [Example 5, ((RS)-3-Benzyl-4-methyl-4-(4-(3-phenylureidomethyl)phenyl)-2,5-dioxoimidazolidin-1-yl)acetyl-L-aspartyl-L-phenylglycine], the IC50 was 9 µM.
Work on `CC1(c2ccc(C#N)cc2)C(=O)N(CC(=O)N[C@@H](CC(=O)O)C(=O)N[C@H](C(=O)O)c2ccccc2)C(=O)N1Cc1ccc2ccccc2c1` (stereo partly shown) [Example 1] yielded an IC50 of 30 µM.
`CC1(c2ccc([N+](=O)[O-])cc2)C(=O)N(CC(=O)N[C@@H](CC(=O)O)C(=O)N[C@H](C(=O)O)c2ccccc2)C(=O)N1Cc1ccccc1` (stereo partly drawn) [Example 2, ((R,S)-3 -Benzyl-4-methyl-4-(4-nitrophenyl)-2,5-dioxoimidazolidin-1-yl)acetyl-L-aspartyl-L-phenylglycine] was tested, and the IC50 was 27.7 µM.
In the case of `Cc1ccccc1NC(=O)Nc1ccc(C2(C)C(=O)N(CC(=O)N[C@@H](CC(=O)O)C(=O)N[C@H](C(=O)O)c3ccccc3)C(=O)N2Cc2ccccc2)cc1` (stereo partly drawn) [Example 3, ((R,S)-3-Benzyl-4-methyl-4-(4-(3-(2-methylphenyl)ureido)phenyl)-2,5-dioxoimidazolidin-1-yl)acetyl-L-aspartyl-L-phenylglycine], the IC50 is reported as 2.8 µM.
For `CC1(c2ccc(CNC(=O)NCc3ccccc3)cc2)C(=O)N(CC(=O)N[C@@H](CC(=O)O)C(=O)N[C@H](C(=O)O)c2ccccc2)C(=O)N1Cc1ccccc1` (stereo partly drawn) [Example 4, ((R,S)-3-Benzyl-4-(4-(3-benzylureidomethyl)phenyl)-4-methyl-2,5-dioxoimidazolidin-1-yl)acetyl-L-aspartyl-L-phenylglycine], the IC50 was 14 µM.
`Cc1ccccc1NC(=O)NCc1ccc(C2(C)C(=O)N(CC(=O)N[C@@H](CC(=O)O)C(=O)N[C@H](C(=O)O)c3ccccc3)C(=O)N2Cc2ccccc2)cc1` (stereo partly drawn) [Example 6, ((R,S)-3 -Benzyl-4-methyl-4-(4-(3-(2-methylphenyl)ureidomethyl)phenyl)-2,5-dioxoimidazolidin-1-yl)acetyl-L-aspartyl-L-phenylglycine] showed an IC50 of 6.5 µM.
For `CC1(c2ccc(CNC(=O)NCCc3ccccc3)cc2)C(=O)N(CC(=O)N[C@@H](CC(=O)O)C(=O)N[C@H](C(=O)O)c2ccccc2)C(=O)N1Cc1ccccc1` (stereo partly drawn) [Example 7, ((R,S)-3-Benzyl-4-methyl-4-(4-(3-(2-phenylethyl)ureidomethyl)phenyl)-2,5-dioxoimidazolidin-1-yl)acetyl-L-aspartyl-L-phenylglycine], the IC50 was 20 µM.
